From PubChem BioAssay (NCI) come the findings set out here.

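These data come from cells grown in 96-well plates and exposed to compound for 48 hours at five concentrations. TGI denotes the concentration required for complete inhibition of growth.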 Bounds are passed on as bounds.

Some test systems named below: LOX IMVI melanoma; DU-145 prostate; SR leukemia; SK-MEL-2 melanoma; NCI/ADR-RES ovarian; UO-31 renal; 786-0 renal; MDA-N; OVCAR-8 ovarian.
Test in all cases: NCI-60 cell line screen, 48 h

Regarding `O=C1/C(=C/c2ccc(Cl)cc2)N=C(c2ccccc2)N1C1Nc2cc3c(cc2S1)NC(N1C(=O)/C(=C/c2ccc(Cl)cc2)N=C1c1ccccc1)S3` (centres undefined), the TGI is more than 100 µM with LOX IMVI melanoma; more than 100 µM with DU-145 prostate; 74.1 µM with SR leukemia; more than 100 µM with SK-MEL-2 melanoma; more than 100 µM with NCI/ADR-RES ovarian; more than 100 µM in the experiment with UO-31 renal. Also, the TGI in the experiment with 786-0 renal, in the experiment with MDA-N and with OVCAR-8 ovarian was more than 100 µM in each case.
Take `O=c1c[n+](-c2ccccc2)[nH]o1`: the TGI in the experiment with LOX IMVI melanoma, with DU-145 prostate, in the experiment with SR leukemia, in the experiment with SK-MEL-2 melanoma, in the experiment on NCI/ADR-RES ovarian and in the experiment on UO-31 renal was more than 100 µM each time. The TGI in the experiment on 786-0 renal and with MDA-N was more than 100 µM each time.
As to `CC1(C)CCCCCC(C)(CCCCCCCCCCCO)C1=O` (centres undefined), the TGI with LOX IMVI melanoma turned out to be 28.7 µM; in the experiment with DU-145 prostate, 31.8 µM; in the experiment with SR leukemia, 14.3 µM; with SK-MEL-2 melanoma, 30.4 µM; in the experiment with NCI/ADR-RES ovarian, 27 µM; in the experiment on UO-31 renal, 30.9 µM. Further, the figures for the TGI with 786-0 renal, in the experiment with MDA-N and with OVCAR-8 ovarian were 29.8 µM, 32.3 µM and 31.2 µM, respectively.
Regarding `BrCCC[P+](c1ccccc1)(c1ccccc1)c1ccccc1`, the TGI in the experiment with LOX IMVI melanoma is 16.8 µM; in the experiment with DU-145 prostate, more than 100 µM; in the experiment with SR leukemia it was more than 100 µM; in the experiment on SK-MEL-2 melanoma, 82.2 µM; with NCI/ADR-RES ovarian, more than 100 µM; in the experiment with UO-31 renal, more than 100 µM. Further, the results for the TGI in the experiment on 786-0 renal, in the experiment with MDA-N and with OVCAR-8 ovarian were more than 100 µM, more than 76.5 µM and more than 100 µM, respectively.
In the case of `O=C1NC(N/N=C/c2ccccc2)=N/C1=C\c1cccs1`, the TGI in the experiment with LOX IMVI melanoma is 23.4 µM; in the experiment on DU-145 prostate it was 56.5 µM; in the experiment on SR leukemia, more than 100 µM; with SK-MEL-2 melanoma, 20.6 µM; in the experiment with NCI/ADR-RES ovarian, 37.6 µM; in the experiment on UO-31 renal it was 48.7 µM. Further, the TGI in the experiment with 786-0 renal was 44.6 µM; with MDA-N, more than 25.2 µM; with OVCAR-8 ovarian, 29.3 µM.
For the compound `O=C(Nc1ccccc1)Nn1c(-c2cccs2)nc2ccc(I)cc2c1=O`, the TGI is 49.1 µM in the experiment with LOX IMVI melanoma; 52.3 µM in the experiment on DU-145 prostate; 47.9 µM with SR leukemia; more than 100 µM in the experiment on NCI/ADR-RES ovarian; 80.3 µM with UO-31 renal; more than 100 µM in the experiment with 786-0 renal. For the same compound, the results for the TGI in the experiment on MDA-N and in the experiment with OVCAR-8 ovarian were 74.6 µM and more than 100 µM, respectively.
Take `O=c1oc2cc(O)ccc2cc1-c1nc2ccccc2s1`: the TGI with LOX IMVI melanoma is 90.2 µM; in the experiment on DU-145 prostate it was more than 100 µM; in the experiment with SR leukemia, more than 100 µM; with SK-MEL-2 melanoma, 50.6 µM; in the experiment on NCI/ADR-RES ovarian, 44.7 µM; in the experiment with UO-31 renal it was 47.6 µM. The figures for the TGI in the experiment with 786-0 renal, in the experiment on MDA-N and in the experiment on OVCAR-8 ovarian were 52.7 µM, 49.9 µM and more than 100 µM, respectively.
For the compound `C[N+](C)(C)C1(C(=O)[O-])CC1`, the TGI in the experiment with LOX IMVI melanoma, in the experiment on DU-145 prostate, with SR leukemia, in the experiment with NCI/ADR-RES ovarian, in the experiment with 786-0 renal and in the experiment on MDA-N was more than 100 µM throughout. Moreover, the TGI in the experiment with OVCAR-8 ovarian is more than 100 µM.
In the case of `COc1ccc(N2CCN(Cc3c(C(C)=O)[n+](=O)c4ccccc4n3[O-])CC2)cc1`, the TGI with LOX IMVI melanoma, in the experiment on DU-145 prostate, in the experiment with SR leukemia, in the experiment with SK-MEL-2 melanoma, in the experiment with NCI/ADR-RES ovarian and in the experiment on UO-31 renal was more than 100 µM in each case. Also, the TGI with 786-0 renal, in the experiment on MDA-N and with OVCAR-8 ovarian was more than 100 µM throughout.
In the case of `CC(=O)O[C@H]1[C@H](OC(C)=O)[C@@H](CN=[N+]=[N-])OCO[C@@H]1CN=[N+]=[N-]`, the TGI in the experiment on LOX IMVI melanoma, in the experiment on DU-145 prostate, in the experiment with SR leukemia, in the experiment with SK-MEL-2 melanoma, in the experiment with NCI/ADR-RES ovarian and with 786-0 renal was more than 100 µM throughout. Moreover, the TGI in the experiment with MDA-N and in the experiment on OVCAR-8 ovarian was more than 100 µM each time.
As for `COP(=O)(OC)C(O)/C=C/c1ccco1` (centres undefined), the TGI in the experiment on LOX IMVI melanoma, in the experiment with DU-145 prostate, in the experiment with SR leukemia, in the experiment with SK-MEL-2 melanoma, in the experiment with NCI/ADR-RES ovarian and in the experiment on UO-31 renal was more than 100 µM in each case. Also, the TGI with 786-0 renal, with MDA-N and with OVCAR-8 ovarian was more than 100 µM each time.
As for `CC(=O)O[C@H]1CC[C@H]2[C@@H]3CCC4=C(C(=O)C=CC4(C)OC(C)=O)[C@H]3CC[C@]12C` (some centres undefined), the TGI with LOX IMVI melanoma, in the experiment with DU-145 prostate, in the experiment with SR leukemia, in the experiment with NCI/ADR-RES ovarian, in the experiment on UO-31 renal and in the experiment with 786-0 renal was more than 100 µM throughout. The TGI in the experiment with MDA-N and in the experiment on OVCAR-8 ovarian was more than 100 µM in each case.
As for `c1cc2cc(c1)CN1CCNCCN(CCNCC1)Cc1cccc(c1)CN1CCNCCN(CCNCC1)C2`, the TGI with LOX IMVI melanoma, in the experiment with DU-145 prostate, in the experiment on SR leukemia, with SK-MEL-2 melanoma, in the experiment on NCI/ADR-RES ovarian and in the experiment with UO-31 renal was more than 100 µM each time. In addition, the TGI in the experiment with 786-0 renal, with MDA-N and in the experiment on OVCAR-8 ovarian was more than 100 µM in each case.
As for `CC1(C)O[C@H]2[C@@H]3N=C(c4ccccc4)O[C@@H]3C=C[C@H]2O1`, the TGI with LOX IMVI melanoma, in the experiment with DU-145 prostate, with SR leukemia, in the experiment on SK-MEL-2 melanoma, with NCI/ADR-RES ovarian and in the experiment on UO-31 renal was more than 100 µM throughout. Also, the TGI in the experiment on 786-0 renal, with MDA-N and in the experiment on OVCAR-8 ovarian was more than 100 µM each time.
Consider `CC(=O)Nc1ccc(S(=O)(=O)[N-]C2C(=O)c3ccccc3C(=O)C2[n+]2ccccc2)cc1` (centres undefined), for which the TGI with LOX IMVI melanoma is more than 100 µM; with DU-145 prostate it was more than 100 µM; in the experiment on SR leukemia, 42.1 µM; in the experiment with SK-MEL-2 melanoma, 25.3 µM; with NCI/ADR-RES ovarian it was 38.8 µM; with UO-31 renal, 21.2 µM. Further, the TGI in the experiment with 786-0 renal was more than 100 µM; in the experiment on MDA-N it was 33 µM; with OVCAR-8 ovarian, 38.3 µM.
